Read-outs that look alike come from different tables or passages of the source.
Assays:
p38α = target: T1, p38α (Homo sapiens, UniProt Q16539); assay: p38 MAP Kinase assay, ATF2 phosphorylation (ELISA); assay type: biochemical; details: 40 μM ATP
T1 construct: p38 MAP Kinases are recombinant human full-length proteins with an amino-terminal GST fusion; GST (N); purchased Upstate (Charlottesville, Va.); host or cells: E. coli
Text: Compounds of the invention are screened for the ability to inhibit ATF2 phosphorylation by p38 MAP Kinase in vitro. The ability of compounds to inhibit ATF2 phosphorylation in this in vitro assay is correlated with the inhibition of p38 MAP Kinase and TNFα expression in vivo, and is therefore an indicator of potential in vivo therapeutic activity (Raingeaud, J., et al, J. Biol. Chem., 270: 7420-7426, 1995, Brinkman, M. N., et al, J. Bil. Chem. 274: 30882-30886, 1999 and Fuchs, S. Y. et al, J. Biol. Chem. 275: 12560-12564, 2000).
All kinases and the substrate ATF2 are acquired from Upstate (Charlottesville, Va.). p38 MAP Kinases are recombinant human full-length proteins with an amino-terminal GST fusion, expressed in and purified from E. coli. ATF2 is a GST fusion protein containing amino acids 19-96 of human ATF2 expressed in E. coli. All proteins were aliquoted and stored at −80° C.
p38 MAP Kinase assays are performed using an assay buffer containing 25 mM HEPES, pH 7.5, 10 mM MgCl2, 2 mM DTT, 20 mM β-glycerophosphate, 0.1 mM Na3VO4, 40 μM ATP and 1.25 μM of ATF2, together with 6 ng of p38α protein, 12 ng p38β protein, 1.5 ng p38γ, or 0.4 ng JNK2α2. Compounds are serially diluted in DMSO and 2 μL of test compound at 25× final concentration is used. The vehicle control receives DMSO only. Test compounds are pre-incubated with 20 μl of enzyme in kinase buffer (25 mM HEPES, pH 7.5, 10 mM MgCl2, 2 mM DTT, 20 mM 3-glycerophosphate and 0.1 mM Na3VO4) at room temperature for 15 minutes. […] The reactions are incubated for 30 minutes at 37° C. and terminated by the addition of 18 μl of 200 mM EDTA. An ELISA method is used to measure the phosphorylation of ATF2 at Thr 69. High binding 96-well plates (Corning 3369) are coated with 50 μl of kinase reaction for 1 hour at 37° C. The coated plates are washed with 200 μl washing buffer (25 mM Tris HCl, pH 8.3, 192 mM glycine, 0.1% SDS and 0.05% Tween-20) three times. The plates are then washed three times with SuperBlock in TBS (Pierce, 37535). After blocking, plates are incubated with 50 μl of rabbit anti-phospho-ATF2 antibody (Cell Signaling, 9221 L, 1:500) for 30 minutes at 37° C. Plates are washed three times with washing buffer prior to incubation with 50 μl HRP-conjugated goat anti-rabbit antibody (Cell Signaling, 7074, 1:500) for 30 minutes at 37° C. Plates are then washed three times with washing buffer before incubation with 50 μl of Ultra TMB-ELISA (Pierce, 34028) for 8 minutes at room temperature. Finally, 50 μl of phosphoric acid (1 M) is added to stop reactions and plate absorbance is read at 450 nm on a SpectraMax 250 plate reader.

[1] = test system: TNFα release from THP-1 cells; assay: TNFα release from LPS-stimulated THP-1 cells; assay type: cell-based
Text: Compounds of the invention are screened for the ability to inhibit TNFα and IL-1β release from THP-1 cells stimulated with lipopolysaccharide (LPS) in vitro. The ability of compounds to inhibit TNFα and IL-1β release in this in vitro assay is correlated with the inhibition of p38 activity and TNFα and IL-1β expression in vivo, and is therefore an indicator of potential in vivo therapeutic activity (Lee J. C. et al, Ann. N.Y. Acad. Sci. 696: 149-170, 1993 and Nature, 372: 739-746, 1994).
THP-1 cells from ATCC (TIB202) are maintained at 37° C., 5% CO2 in RPMI 1640 media (MediaTech, Herndon, Va.) containing 4.5 g/L glucose, supplemented with 10% fetal bovine serum, 1% penicillin/streptomycin and 50 μM β-mercaptoethanol.
Test compounds are initially dissolved in RPMI media with 1% DMSO (v/v). Compounds are then serially diluted in RPMI media for all subsequent dilutions. The assay is performed under sterile conditions. THP-1 cells at a culture density of 6-8×10^5 cells/ml are collected and resuspended in the RPMI media at 10^6 cells/ml. 100 μl of resuspended cells are added to each well, which contain 100 μl of a test compound. Test compounds are prepared at twice the final concentration. Final DMSO concentration is no more than 0.5% (v/v). Cells are preincubated with compound for 30 minutes at 37° C., 5% CO2 prior to stimulation with lipopolysaccharide (LPS) (Sigma L-2880, 4 mg/ml stock in PBS). The final LPS concentration in each well is 10 or 30 μg/ml for TNFα and IL-1β release, respectively. Unstimulated control cell suspensions receive PBS vehicle only. Cell mixtures are incubated for 18 or 48 hours for TNFα and IL-1β release, respectively. 150 μl of supernatants are taken and transferred to a fresh plate and stored at −20° C. until further analysis.

[2] = LPS 10 μg/ml, 18 hours, read-out: TNFα (THP-1) IC50
[3] = Homo sapiens, THP-1, 18 h, LPS 10 μg/ml, 18 hours, read-out: TNFα (THP-1) IC50
[4] = Homo sapiens, THP-1, 18 h, read-out: TNFα (THP-1) IC50 (nM)

T1 sequence (Q16539 whole entry, the tested form may be a part): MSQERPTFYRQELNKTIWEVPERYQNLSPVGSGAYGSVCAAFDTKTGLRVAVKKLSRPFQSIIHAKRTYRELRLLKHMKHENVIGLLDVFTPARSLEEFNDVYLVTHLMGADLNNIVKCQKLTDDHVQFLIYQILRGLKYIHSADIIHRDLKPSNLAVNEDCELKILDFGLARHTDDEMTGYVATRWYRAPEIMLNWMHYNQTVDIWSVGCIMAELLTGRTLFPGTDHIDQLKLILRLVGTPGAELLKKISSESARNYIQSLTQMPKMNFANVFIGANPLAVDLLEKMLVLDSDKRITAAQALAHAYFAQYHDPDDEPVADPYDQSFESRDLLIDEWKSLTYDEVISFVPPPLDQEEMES

IC50 (p38α) [nM] | IC50 [1, 2] [nM] | IC50 [1, 3] [nM] | SMILES | IC50 [1, 4] [nM]
191 | 43.3 | – | CC(C)[C@@H](CO)Nc1nccc(-c2c(-c3ccc(F)c(F)c3)nc3sccn23)n1 [CCLXXV] | –
1.1 | – | 52.7 | CC(C)(C)OC(=O)N1CCC(Nc2nccc(-c3c(-c4ccc(F)cc4F)nc4occn34)n2)CC1 [CCLXXXIII] | –
44.8 | – | 88.4 | CN(C)CC(C)(C)CNc1nccc(-c2c(-c3ccccc3Cl)nc3occn23)n1 [CCLXXXII] | –
1.4 | – | 96.2 | CC(C)(C)OC(=O)N1CCC(Nc2nccc(-c3c(-c4ccc(F)cc4Cl)nc4occn34)n2)CC1 [CCLXXXIV] | –
4.8 | – | 211 | Cc1ccccc1-c1nc2occn2c1-c1ccnc(NC2CCN(C(=O)OC(C)(C)C)CC2)n1 [CCLXXXVIII] | –
8.2 | – | 170 | CC(C)(C)OC(=O)N1CCC(Nc2nccc(-c3c(-c4ccccc4Cl)nc4occn34)n2)CC1 [CCLXXXVII] | –
7 | – | 67.3 | Fc1ccc(-c2nc3occn3c2-c2ccnc(NC3CCNCC3)n2)c(Cl)c1 [CCLXXXVI] | –
3.3 | – | 9.9 | Fc1ccc(-c2nc3occn3c2-c2ccnc(NC3CCNCC3)n2)c(F)c1 [CCLXXXV] | –
112 | 93.5 | – | COc1cccc(-c2nc3sccn3c2-c2ccnc(N[C@H](CO)C(C)C)n2)c1 [CCLXX] | –
30 | – | 213 | CC(C)(Nc1nccc(-c2c(-c3ccc(F)cc3)nc3sccn23)n1)C(O)c1ccccc1 (stereo not drawn) [CCLX] | –
27.2 | – | 15.5 | OC1(CNc2nccc(-c3c(-c4ccc(F)cc4)nc4sccn34)n2)CCCCC1 [CCL] | –
191 | – | 43.4 | CC(C)[C@@H](CO)Nc1nccc(-c2c(-c3ccc(F)c(F)c3)nc3sccn23)n1 [CCVII] | –
6.1 | – | 17.8 | CN(C)CC(C)(C)CNc1nccc(-c2c(-c3ccc(F)cc3F)nc3occn23)n1 [CCXCIX] | –
52.2 | – | 85.1 | Cc1ccccc1-c1nc2occn2c1-c1ccnc(NCC(C)(C)CN(C)C)n1 [CCXCVIII] | –
20.3 | – | 78.2 | CN(C)CC(C)(C)CNc1nccc(-c2c(-c3ccc(F)cc3Cl)nc3occn23)n1 [CCXCX] | –
13.3 | – | 5.63 | Fc1ccc(-c2nc3sccn3c2-c2ccnc(NCC3CC3)n2)cc1 [CCXIII] | –
8.81 | – | 24.1 | Oc1ccc(C(O)CNc2nccc(-c3c(-c4ccc(F)cc4)nc4sccn34)n2)cc1 (stereo not drawn) [CCXII] | –
12.1 | – | 5.03 | C[C@H](O)CNc1nccc(-c2c(-c3ccc(F)cc3)nc3sccn23)n1 [CCXIV] | –

IC50 (p38α) [nM] | IC50 [1, 2] [nM] | IC50 [1, 3] [nM] | SMILES | IC50 [1, 4] [nM]
3.03 | – | 6.84 | CC[C@@H](CO)Nc1nccc(-c2c(-c3ccc(F)cc3)nc3sccn23)n1 [CCXIX] | –
147 | – | 58.9 | Cc1ccc(-c2nc3sccn3c2-c2ccnc(N[C@H](CO)C(C)C)n2)cc1 [CCXI] | –
2.19 | – | 19.5 | Nc1ccc(CCNc2nccc(-c3c(-c4ccc(F)cc4)nc4sccn34)n2)cc1 [CCXLIII] | –
3.28 | – | 3.83 | CCC(O)CNc1nccc(-c2c(-c3ccc(F)cc3)nc3sccn23)n1 (stereo not drawn) [CCXLII] | –
11.4 | – | 5.98 | CN(C)CC(C)(C)CNc1nccc(-c2c(-c3ccc(F)cc3)nc3sccn23)n1 [CCXLIV] | –
31.6 | – | 20.3 | Fc1ccc(-c2nc3sccn3c2-c2ccnc(NCCN3CCOCC3)n2)cc1 [CCXLIX] | –
2.81 | – | 5.18 | CC(C)(CO)Nc1nccc(-c2c(-c3ccc(F)cc3)nc3sccn23)n1 [CCXLI] | –
8.39 | – | 20.8 | OC1(CNc2nccc(-c3c(-c4ccc(F)cc4)nc4sccn34)n2)CCCc2ccccc21 (stereo not drawn) [CCXLVIII] | –
4.84 | – | 33.2 | Fc1ccc(CCNc2nccc(-c3c(-c4ccc(F)cc4)nc4sccn34)n2)cc1 [CCXLVII] | –
3.06 | – | 23.9 | Oc1cccc(C(O)CNc2nccc(-c3c(-c4ccc(F)cc4)nc4sccn34)n2)c1 (stereo not drawn) [CCXLVI] | –
82.1 | – | 14.2 | Fc1ccc(-c2nc3sccn3c2-c2ccnc(NCCN3CCCCC3)n2)cc1 [CCXLV] | –
135 | – | 3300 | Fc1ccc(-c2nc3sccn3c2-c2ccnc(NCc3nc4ccccc4[nH]3)n2)cc1 [CCXL] | –
5.87 | – | 4.46 | Fc1ccc(-c2nc3sccn3c2-c2ccnc(NCCc3ccncc3)n2)cc1 [CCXVIII] | –
1.19 | – | 7.84 | CCOC(=O)N1CCC(Nc2nccc(-c3c(-c4ccc(F)cc4)nc4sccn34)n2)CC1 [CCXVII] | –
4.68 | – | 5.15 | CCCNc1nccc(-c2c(-c3ccc(F)cc3)nc3sccn23)n1 [CCXVI] | –
2.32 | – | 8.58 | COCC(C)Nc1nccc(-c2c(-c3ccc(F)cc3)nc3sccn23)n1 (stereo not drawn) [CCXV] | –
5.45 | – | 49.6 | CCCC[C@@H](CO)Nc1nccc(-c2c(-c3ccc(F)cc3)nc3sccn23)n1 [CCXXII] | –
1.57 | – | 5.56 | O[C@H]1CC[C@H](Nc2nccc(-c3c(-c4ccc(F)cc4)nc4sccn34)n2)CC1 [CCXXI] | –

SMILES | IC50 (p38α) [nM] | IC50 [1, 2] [nM] | IC50 [1, 3] [nM] | IC50 [1, 4] [nM]
Fc1ccc(-c2nc3occn3c2-c2ccnc(N[C@@H]3CN4CCC3CC4)n2)c(F)c1 [CCLXXXIX] | 1.3 | – | – | 3.2
FC(F)(F)c1cccc(-c2nc3occn3c2-c2ccnc(N[C@@H]3CN4CCC3CC4)n2)c1 [CCXCIII] | 4.9 | – | 172 | –
Cc1ccccc1-c1nc2occn2c1-c1ccnc(N[C@@H]2CN3CCC2CC3)n1 [CCXCII] | 16.3 | – | – | 47.8
FC(F)(F)c1cccc(-c2nc3occn3c2-c2ccnc(N[C@H]3CN4CCC3CC4)n2)c1 [CCXCIV] | 16.4 | – | 90 | –
Clc1ccccc1-c1nc2occn2c1-c1ccnc(N[C@@H]2CN3CCC2CC3)n1 [CCXCI] | 11.2 | – | – | 77
CN1[C@@H]2CC[C@H]1C[C@@H](Nc1nccc(-c3c(-c4ccccc4Cl)nc4occn34)n1)C2 [CCXCVII] | 6.8 | – | – | 24.4
CN1[C@@H]2CC[C@H]1C[C@@H](Nc1nccc(-c3c(-c4ccc(F)cc4Cl)nc4occn34)n1)C2 [CCXCVI] | 3.6 | – | – | 15.5
Fc1ccc(-c2nc3occn3c2-c2ccnc(N[C@H]3CN4CCC3CC4)n2)c(Cl)c1 [CCXCV] | 9.7 | – | 8.7 | –
Fc1ccc(-c2nc3occn3c2-c2ccnc(N[C@@H]3CN4CCC3CC4)n2)c(Cl)c1 [CCXC] | 6.8 | – | 72 | –
